Data taken from ChEMBL document CHEMBL5046292, “Resveratrol-Based MTDLs to Stimulate Defensive and Regenerative Pathways and Block Early Events in Neurodegenerative Cascades” (J Med Chem, 2022).
One block for each molecule: values may come before it. Activity calls are given as the source filed them. The rule behind the calls is not given here.

Key:
[1] = target: T1, Nuclear factor erythroid 2-related factor 2 (Homo sapiens) (UniProt Q16236); conditions: Arec32, time 24.0 hrs
T1 sequence (whole entry): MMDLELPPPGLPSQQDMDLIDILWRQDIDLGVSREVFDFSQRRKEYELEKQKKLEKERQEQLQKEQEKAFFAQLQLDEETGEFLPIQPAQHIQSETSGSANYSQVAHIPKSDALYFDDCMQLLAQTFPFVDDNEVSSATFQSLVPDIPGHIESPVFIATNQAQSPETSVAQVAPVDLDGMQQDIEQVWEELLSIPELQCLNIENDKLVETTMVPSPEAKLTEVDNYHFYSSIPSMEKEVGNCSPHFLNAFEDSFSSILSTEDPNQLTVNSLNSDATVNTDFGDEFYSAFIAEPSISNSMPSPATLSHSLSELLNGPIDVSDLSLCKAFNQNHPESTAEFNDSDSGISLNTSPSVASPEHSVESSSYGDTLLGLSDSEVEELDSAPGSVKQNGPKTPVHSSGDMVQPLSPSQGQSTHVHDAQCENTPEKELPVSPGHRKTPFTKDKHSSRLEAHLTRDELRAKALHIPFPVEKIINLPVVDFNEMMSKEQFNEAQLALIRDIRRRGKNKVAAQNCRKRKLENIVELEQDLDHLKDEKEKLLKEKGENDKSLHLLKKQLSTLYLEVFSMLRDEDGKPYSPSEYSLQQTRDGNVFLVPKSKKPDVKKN

Hippocampal neurone [2] = assay: Induction of neurogenesis in C57BL/6 mouse assessed as increase in cell migration distance by confocal microscopic analysis; assay type: functional, cell-based
Hippocampal neurone [3] = assay: Induction of neurogenesis in C57BL/6 mouse hippocampus neurospheres assessed as upregulation of TuJ-1 by confocal microscopic analysis; assay type: functional, cell-based
Hippocampal neurone [4] = assay: Induction of neurogenesis in C57BL/6 mouse hippocampus neurospheres assessed as upregulation of MAP-2 by confocal microscopic analysis; assay type: functional, cell-based
[5] = target: T2, Amine oxidase [flavin-containing] B (Homo sapiens, UniProt P27338); assay: Inhibition of human recombinant MAO-B at 15 microM preincubated upto 30 mins using tyramine as substrate by fluorescence assay relative to control; conditions: TDE = time-dependent effect
T2 sequence (P27338 whole entry): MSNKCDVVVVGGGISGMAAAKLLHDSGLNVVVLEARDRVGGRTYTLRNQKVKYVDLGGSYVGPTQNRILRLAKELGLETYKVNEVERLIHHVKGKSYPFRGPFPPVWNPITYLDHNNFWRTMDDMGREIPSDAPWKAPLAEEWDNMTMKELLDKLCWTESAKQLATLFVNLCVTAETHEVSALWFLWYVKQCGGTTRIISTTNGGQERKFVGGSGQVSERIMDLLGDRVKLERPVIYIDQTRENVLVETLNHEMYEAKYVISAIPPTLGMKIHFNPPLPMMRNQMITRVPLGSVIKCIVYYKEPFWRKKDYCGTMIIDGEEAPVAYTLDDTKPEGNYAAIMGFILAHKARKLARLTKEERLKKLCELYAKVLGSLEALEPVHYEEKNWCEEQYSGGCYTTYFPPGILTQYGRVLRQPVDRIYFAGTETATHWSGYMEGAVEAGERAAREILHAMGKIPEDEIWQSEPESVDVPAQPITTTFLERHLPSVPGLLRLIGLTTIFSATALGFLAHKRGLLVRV

SH-SY5Y = assay: (§1) Cytotoxicity against human SH-SY5Y cells assessed as cell viability at 100 uM incubated for 24 hrs by MTT assay; assay type: toxicity, cell-based; conditions: sh-sy5y, 24 h, 100 µM
[6] = GSH reactivity in presence glutathione-S-transferas by HPLC-MS analysis; assay type: physicochemical
Hippocampus [7] = assay: Neuroprotective activity in okadaic acid-induced toxicity in C57BL/6J mouse hippocampus slice assessed as cell viability at 1 uM measured after 6 hrs by MTT assay; assay type: functional, tissue-based
Hippocampus [8] = assay: Neuroprotective activity in okadaic acid-induced toxicity in C57BL/6J mouse hippocampus slice assessed cell death at 1 uM after 6 hrs by propidium iodide staining; assay type: functional, tissue-based
Hippocampus [9] = assay: Neuroprotective activity in okadaic acid-induced toxicity in C57BL/6J mouse hippocampus slice assessed reduction in ROS level at 1 uM after 6 hrs by H2DCFDA probe based fluorescence analysis; assay type: functional, tissue-based
Hippocampus [10] = assay: Down regulation of okadaic acid-induced inducible nitric oxide synthase expression in C57BL/6J mouse hippocampus slice at 1 uM by Western blotting analysis; assay type: functional, tissue-based
Hippocampus [11] = assay: Down regulation of okadaic acid induced p65 expression in C57BL/6J mouse hippocampus slice at 1 uM by Western blotting analysis; assay type: functional, tissue-based
Hippocampus [12] = assay: Down regulation of okadaic acid induced HO-1 expression in C57BL/6J mouse hippocampus slice at 1 uM by Western blotting analysis; assay type: functional, tissue-based
in vitro = conditions: PAMPA, pH 7.4
Description: Permeability of compound in PBS buffer at pH 7.4 by PAMPA-BBB assay

[13] = target: T2, Amine oxidase [flavin-containing] B; assay: Inhibition of human recombinant MAO-B at 2 microM preincubated upto 30 mins using tyramine as substrate by fluorescence assay relative to control; conditions: TDE = time-dependent effect
[14] = as §1; assay type: toxicity, cell-based; conditions: SH-SY5Y cells, read-out: Activity

CD [1]: > 60 µM
Compound: C#CCNC(=O)/C=C/c1ccc(O)cc1

Activity [5]: Tde
Activity [6]: Not Active
Compound: C#CCn1nc(/C=C/c2ccc(OC)cc2)oc1=O
Activity (Hippocampal neurone [2]): Active
Activity (Hippocampal neurone [3]): Active
Activity (Hippocampal neurone [4]): Active
Activity (SH-SY5Y): Non-Toxic
Activity (Hippocampus [7]): Active
Activity (Hippocampus [8]): Active
Activity (Hippocampus [9]): Active
Activity (Hippocampus [10]): Active
Activity (Hippocampus [11]): Active
Activity (Hippocampus [12]): inactive

Papp (in vitro): ≤ 0.7 ×10⁻⁶ cm/s
Compound: O=c1[nH]nc(/C=C/c2ccc(O)cc2)o1
Activity (SH-SY5Y): Non-Toxic

Activity [13]: Tde
Compound: O=c1[nH]nc(/C=C/c2cccc([N+](=O)[O-])c2)o1
Activity (Hippocampal neurone [2]): Active
Activity (Hippocampal neurone [3]): Active
Activity (Hippocampal neurone [4]): Active

Compound: Oc1ccc(/C=C/c2cc(O)cc(O)c2)cc1 [RESVERATROL]
viability at 24 h, 100 µM [14]: 50%

Compound: C#CCNC/C=C/c1ccc(O)c(OC)c1
Activity (SH-SY5Y): Non-Toxic

CD [1]: > 60 µM
Compound: O=c1[nH]nc(/C=C/c2ccc3c(c2)OCO3)o1

CD [1]: > 60 µM
Compound: COc1ccc(/C=C/c2n[nH]c(=O)o2)cc1

CD [1]: > 60 µM
Papp (in vitro): ≤ 0.5 ×10⁻⁶ cm/s
Compound: O=c1[nH]nc(/C=C/c2cccc(O)c2)o1
Activity (Hippocampal neurone [2]): Active
Activity (Hippocampal neurone [3]): Active
Activity (Hippocampal neurone [4]): Active

Compound: C#CCn1nc(/C=C/c2cccc(OC)c2)oc1=O
Activity (Hippocampal neurone [2]): Active
Activity (Hippocampal neurone [3]): Active
Activity (Hippocampal neurone [4]): Active
Activity (SH-SY5Y): Non-Toxic

CD [1]: > 60 µM
Compound: COc1ccc(/C=C/c2n[nH]c(=O)o2)cc1OC

CD [1]: > 60 µM
Compound: COc1cccc(/C=C/c2n[nH]c(=O)o2)c1
Activity (Hippocampal neurone [2]): Active
Activity (Hippocampal neurone [3]): Active
Activity (Hippocampal neurone [4]): Active

Papp (in vitro): ≤ 0.4 ×10⁻⁶ cm/s
Compound: C#CCNC(=O)/C=C/c1ccc(O)c(O)c1
Activity (SH-SY5Y): Non-Toxic

Compound: C#CCn1nc(/C=C/c2ccccc2)oc1=O
viability at 24 h, 100 µM [14]: 30%

CD [1]: > 60 µM
Papp (in vitro): ≤ 0.1 ×10⁻⁶ cm/s
Compound: O=c1[nH]nc(/C=C/c2cc(O)cc(O)c2)o1

CD [1]: > 60 µM
Compound: C#CCNC(=O)/C=C/c1cccc(C#N)c1

Compound: O=c1[nH]nc(/C=C/c2ccc(O)c(O)c2)o1
Activity (SH-SY5Y): Non-Toxic

CD [1]: > 60 µM
Papp (in vitro): ≤ 0.5 ×10⁻⁶ cm/s
Compound: C#CCNC(=O)/C=C/c1ccc(O)c(OC)c1

Papp (in vitro): ≤ 0.5 ×10⁻⁶ cm/s
Compound: COc1cc(/C=C/c2n[nH]c(=O)o2)cc(OC)c1OC
